Results: patent EP2607478A1, “Phenanthroline treated MSC” (Universiteit Twente, priority 2011, dated 2013)

System: MSCs
Assay: Whole genome expression analysis (Illumina microarray) of treated MSCs
Format: cell-based, Human
Experimental: MSCs were seeded in T25 flasks at 5000 cells/cm^2 and allowed to attach overnight in proliferation medium. […] After 48 hours, RNA was isolated as described above. From 500 ng of RNA, cRNA was synthesized using the Illumina TotalPrep RNA amplification Kit (Ambion), according to the manufacturer's protocol and the quality of RNA and cRNA was verified on a Bioanalyzer 2100 (Agilent). Microarrays were performed using Illumina HT-12 v4 expression Beadchips, according to the manufacturer's protocol. Briefly, 750 ng of cRNA was hybridized on the array overnight after which the array was washed and blocked. Then, by addition of streptavidin Cy-3 a fluorescent signal was developed. Arrays were scanned on an Illumina iScan reader and raw intensity values were background corrected in GenomeStudio (Illumina). Further data processing and statistical testing were performed with R and Bioconductor statistical software (www.bioconductor.org), using package lumi. Raw intensity values were transformed using variance stabilization and a quantile normalization was performed. A linear modelling approach with empirical Bayesian methods, as implemented in Limma package (54), was applied for differential expression analysis of the resulting probe-level expression values. A gene list, containing only those genes with an absolute 1.5-fold change between different treatments, was uploaded to Ingenuity Pathway Analysis (IPA) software and used for core analysis. Pathways or networks with a p-value of 0.05 were considered statistically significant.

Compound: c1cnc2c(c1)ccc1cccnc12 [PHE, 1, 10-phenanthroline]
- logFC(D142_PHE - D142_BAS) DLX5 (ProbeID ILMN_1759598): -2,28
- logFC(D142_PHE - D142_BAS) C4orf18 (ProbeID ILMN_1761941): -2,15
- logFC(D142_PHE - D142_BAS) AK3L1 (ProbeID ILMN_1764090): 3,40
- logFC(D142_PHE - D142_BAS) JARID2 (ProbeID ILMN_1764177): 2,12
- logFC(D142_PHE - D142_BAS) MUM1 (ProbeID ILMN_1764764): -2,05
- logFC(D142_PHE - D142_BAS) OLFML2B (ProbeID ILMN_1765557, PHE vs BAS): -3,04
- logFC(D142_PHE - D142_BAS) LOC399942 (ProbeID ILMN_1765701, PHE vs BAS): -2,98
- logFC(D142_PHE - D142_BAS) ENO2 (ProbeID ILMN_1765796): 4,72
- logFC(D142_PHE - D142_BAS) KCNK2 (ProbeID ILMN_1765990, PHE vs BAS): -2,82
- logFC(D142_PHE - D142_BAS) C10orf10 (ProbeID ILMN_1767556): 3,71
- logFC(D142_PHE - D142_BAS) HIST2H2AC (ProbeID ILMN_1768973): 3,39
- logFC(D142_PHE - D142_BAS) ISOC2 (ProbeID ILMN_1769158): -2,08
- logFC(D142_PHE - D142_BAS) KRT34 (ProbeID ILMN_1770228): 2,77
- logFC(D142_PHE - D142_BAS) CNN2 (ProbeID ILMN_1770290, PHE vs BAS): -3,30
- logFC(D142_PHE - D142_BAS) ANGPTL2 (ProbeID ILMN_1772612, PHE vs BAS): -2,93
- logFC(D142_PHE - D142_BAS) EML3 (ProbeID ILMN_1772644): -2,23
- logFC(D142_PHE - D142_BAS) ZNF395 (ProbeID ILMN_1772876): 3,66
- logFC(D142_PHE - D142_BAS) GAS1 (ProbeID ILMN_1772910, PHE vs BAS): -3,75
- logFC(D142_PHE - D142_BAS) C16orf72 (ProbeID ILMN_1773407): 2,40
- logFC(D142_PHE - D142_BAS) LOC441054 (ProbeID ILMN_1774390): 2,68
- logFC(D142_PHE - D142_BAS) FBLN2 (ProbeID ILMN_1774602, PHE vs BAS): -2,40
- logFC(D142_PHE - D142_BAS) SMOX (ProbeID ILMN_1775380): 2,29
- logFC(D142_PHE - D142_BAS) SLC2A3 (ProbeID ILMN_1775708): 3,23
- logFC(D142_PHE - D142_BAS) BTG1 (ProbeID ILMN_1775743): 2,36
- logFC(D142_PHE - D142_BAS) MYL9 (ProbeID ILMN_1776953): -2,25
- logFC(D142_PHE - D142_BAS) STAT1 (ProbeID ILMN_1777325): -2,01
- logFC(D142_PHE - D142_BAS) LOC731007 (ProbeID ILMN_1777499): 2,46
- logFC(D142_PHE - D142_BAS) KCTD11 (ProbeID ILMN_1777513): 3,02
- logFC(D142_PHE - D142_BAS) LOC644774 (ProbeID ILMN_1779258): 3,09
- logFC(D142_PHE - D142_BAS) CPA4 (ProbeID ILMN_1784294): 5,44
- logFC(D142_PHE - D142_BAS) TUBA4A (ProbeID ILMN_1784300): 2,80
- logFC(D142_PHE - D142_BAS) SPOCD1 (ProbeID ILMN_1784948, PHE vs BAS): -3,46
- logFC(D142_PHE - D142_BAS) PRKD1 (ProbeID ILMN_1785891, PHE vs BAS): -2,51
- logFC(D142_PHE - D142_BAS) UHRF1 (ProbeID ILMN_1786065): -2,25
- logFC(D142_PHE - D142_BAS) PSME2 (ProbeID ILMN_1786612, PHE vs BAS): -2,64
- logFC(D142_PHE - D142_BAS) MFAP2 (ProbeID ILMN_1787981): -2,29
- logFC(D142_PHE - D142_BAS) COL11A1 (ProbeID ILMN_1789507, PHE vs BAS): -3,53
- logFC(D142_PHE - D142_BAS) GBE1 (ProbeID ILMN_1789702): 2,68
- logFC(D142_PHE - D142_BAS) Mar-04 (ProbeID ILMN_1789991): 2,06
- logFC(D142_PHE - D142_BAS) PRRX2 (ProbeID ILMN_1790338, PHE vs BAS): -2,93
- logFC(D142_PHE - D142_BAS) C6orf125 (ProbeID ILMN_1790461): -2,25
- logFC(D142_PHE - D142_BAS) LUM (ProbeID ILMN_1790529, PHE vs BAS): -3,46
- logFC(D142_PHE - D142_BAS) CRISPLD2 (ProbeID ILMN_1790689): -2,32
- logFC(D142_PHE - D142_BAS) PNMA2 (ProbeID ILMN_1790778): 2,46
- logFC(D142_PHE - D142_BAS) CXCL12 (ProbeID ILMN_1791447, PHE vs BAS): -3,48
- logFC(D142_PHE - D142_BAS) DPYSL4 (ProbeID ILMN_1792356): 3,91
- logFC(D142_PHE - D142_BAS) TMEM158 (ProbeID ILMN_1792455): 3,06
- logFC(D142_PHE - D142_BAS) HIST1H2AC (ProbeID ILMN_1792689): 2,10
- logFC(D142_PHE - D142_BAS) SERTAD1 (ProbeID ILMN_1794017): 2,93
- logFC(D142_PHE - D142_BAS) NDUFS8 (ProbeID ILMN_1794132): -2,07
- logFC(D142_PHE - D142_BAS) HAS3 (ProbeID ILMN_1794501, PHE vs BAS): -2,42
- logFC(D142_PHE - D142_BAS) CAMK2N1 (ProbeID ILMN_1794863): 2,88
- logFC(D142_PHE - D142_BAS) OKL38 (ProbeID ILMN_1795963): 2,72
- logFC(D142_PHE - D142_BAS) HIST1H2BK (ProbeID ILMN_1796179): 2,23
- logFC(D142_PHE - D142_BAS) GDF5 (ProbeID ILMN_1796471): -2,25
- logFC(D142_PHE - D142_BAS) C3orf58 (ProbeID ILMN_1797372): 2,45
- logFC(D142_PHE - D142_BAS) HMGCS1 (ProbeID ILMN_1797728): -2,20
- logFC(D142_PHE - D142_BAS) AK3L1 (ProbeID ILMN_1798249): 3,18
- logFC(D142_PHE - D142_BAS) CXCR7 (ProbeID ILMN_1798360): 2,96
- logFC(D142_PHE - D142_BAS) MCM6 (ProbeID ILMN_1798654): -2,31
- logFC(D142_PHE - D142_BAS) RARRES1 (ProbeID ILMN_1800091): -2,22
- logFC(D142_PHE - D142_BAS) HMOX1 (ProbeID ILMN_1800512): 2,82
- logFC(D142_PHE - D142_BAS) LDB2 (ProbeID ILMN_1800697, PHE vs BAS): -2,38
- logFC(D142_PHE - D142_BAS) PLIN2 (ProbeID ILMN_1801077): 3,49
- logFC(D142_PHE - D142_BAS) RLF (ProbeID ILMN_1801156): 2,05
- logFC(D142_PHE - D142_BAS) SIAH2 (ProbeID ILMN_1801313): 2,15
- logFC(D142_PHE - D142_BAS) METRNL (ProbeID ILMN_1801610): 2,03
- logFC(D142_PHE - D142_BAS) CCNB2 (ProbeID ILMN_1801939, PHE vs BAS): -2,66
- logFC(D142_PHE - D142_BAS) GLT8D2 (ProbeID ILMN_1802654): -2,05
- logFC(D142_PHE - D142_BAS) FAM162A (ProbeID ILMN_1803647): 2,36
- logFC(D142_PHE - D142_BAS) CXCL12 (ProbeID ILMN_1803825, PHE vs BAS): -2,38
- logFC(D142_PHE - D142_BAS) VEGFA (ProbeID ILMN_1803882): 4,07
- logFC(D142_PHE - D142_BAS) SRXN1 (ProbeID ILMN_1804822): 2,32
- logFC(D142_PHE - D142_BAS) SLC14A1 (ProbeID ILMN_1805561, PHE vs BAS): -2,57
- logFC(D142_PHE - D142_BAS) PFKP (ProbeID ILMN_1805737): 2,32
- logFC(D142_PHE - D142_BAS) TK1 (ProbeID ILMN_1806037): -2,14
- logFC(D142_PHE - D142_BAS) SLC6A8 (ProbeID ILMN_1806349): 2,45
- logFC(D142_PHE - D142_BAS) FMO3 (ProbeID ILMN_1808657, PHE vs BAS): -2,85
- logFC(D142_PHE - D142_BAS) PGF (ProbeID ILMN_1809813): 3,28
- logFC(D142_PHE - D142_BAS) NDRG1 (ProbeID ILMN_1809931): 4,06
- logFC(D142_PHE - D142_BAS) P8 (ProbeID ILMN_1810560): 2,09
- logFC(D142_PHE - D142_BAS) KIAA0367 (ProbeID ILMN_1810628): -2,12
- logFC(D142_PHE - D142_BAS) PDE5A (ProbeID ILMN_1810836, PHE vs BAS): -3,04
- logFC(D142_PHE - D142_BAS) LOC402221 (ProbeID ILMN_1811909): -2,18
- logFC(D142_PHE - D142_BAS) FAM20A (ProbeID ILMN_1812091): -2,34
- logFC(D142_PHE - D142_BAS) HIST1H2BK (ProbeID ILMN_1813314): 2,41
- logFC(D142_PHE - D142_BAS) KIAA1199 (ProbeID ILMN_1813704, PHE vs BAS): -4,06
- logFC(D142_PHE - D142_BAS) FKSG30 (ProbeID ILMN_1814998): -2,20
- logFC(D142_PHE - D142_BAS) PIM1 (ProbeID ILMN_1815023): 2,29
- logFC(D142_PHE - D142_BAS) PLAGL1 (ProbeID ILMN_1815121): 2,24
- logFC(D142_PHE - D142_BAS) DHCR7 (ProbeID ILMN_1815626): -2,12
- logFC(D142_PHE - D142_BAS) ERCC2 (ProbeID ILMN_1815859): -2,17
- logFC(D142_PHE - D142_BAS) (ProbeID ILMN_1816244, no gene name printed): 2,02
